“And” between values parts separate entries of the source, which are not always exact repeats. Identical values can stand only once.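 Values below derive from 48-hour exposures of cells grown in 96-well plates, with endpoints linearly interpolated between the two concentrations bracketing the appropriate inhibition level. Here, GI50 denotes the concentration required for 50% inhibition of growth. TGI is the concentration that stops growth completely.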
Experiments:
Experiment in all cases: growth of human tumour cells (NCI), 48 h
SK-MEL-28 melanoma = tested on: SK-MEL-28 melanoma
SNB-75 CNS = tested on: SNB-75 CNS
MDA-MB-231 breast = tested on: MDA-MB-231 breast
UO-31 renal = tested on: UO-31 renal
SW-620 colon = tested on: SW-620 colon
HS 578T breast = tested on: HS 578T breast
SF-268 CNS = tested on: SF-268 CNS
CCRF-CEM leukemia = tested on: CCRF-CEM leukemia
U251 CNS = tested on: U251 CNS
HCT-116 colon = tested on: HCT-116 colon
NCI-H522 lung = tested on: NCI-H522 lung
SNB-19 CNS = tested on: SNB-19 CNS
A498 renal = tested on: A498 renal
UACC-257 melanoma = tested on: UACC-257 melanoma
KM12 colon = tested on: KM12 colon
COLO 205 colon = tested on: COLO 205 colon
HOP-92 NSCLC = tested on: HOP-92 NSCLC
HCC-2998 colon = tested on: HCC-2998 colon
M14 melanoma = tested on: M14 melanoma
T-47D breast = tested on: T-47D breast
SF-539 CNS = tested on: SF-539 CNS
LOX IMVI melanoma = tested on: LOX IMVI melanoma
NCI-H226 lung = tested on: NCI-H226 lung
UACC-62 melanoma = tested on: UACC-62 melanoma
MOLT-4 leukemia = tested on: MOLT-4 leukemia
OVCAR-4 ovarian = tested on: OVCAR-4 ovarian
NCI-H23 lung = tested on: NCI-H23 lung
RPMI-8226 leukemia = tested on: RPMI-8226 leukemia
OVCAR-3 ovarian = tested on: OVCAR-3 ovarian
MALME-3M melanoma = tested on: MALME-3M melanoma

## CC(C)c1cc(C(=O)N2Cc3ccc(CN4CCN(C)CC4)cc3C2)c(O)cc1O
SK-MEL-28 melanoma
  GI50: 0.0983 µM and 0.536 µM
  TGI: 18.3 µM and 15.8 µM
SNB-75 CNS
  GI50: 1.27 µM and 2.19 µM
  TGI: 46.7 µM and > 57.3 µM
MDA-MB-231 breast
  GI50: 0.39 µM and 0.443 µM
  TGI: 24.8 µM and 13.7 µM
UO-31 renal
  GI50: 0.0591 µM and 0.296 µM
  TGI: 23.6 µM and 18.1 µM
SW-620 colon
  GI50: 0.0376 µM and 0.0557 µM
  TGI: 23.6 µM and 14.8 µM
HS 578T breast
  GI50: 0.716 µM and 1.87 µM
  TGI: 35.3 µM and 43.9 µM
SF-268 CNS
  TGI: 59.1 µM and 54.3 µM
CCRF-CEM leukemia
  GI50: 0.0737 µM and 0.106 µM
  TGI: > 100 µM and 30.2 µM
U251 CNS
  GI50: 0.0863 µM and 0.32 µM
  TGI: > 50.5 µM and 19.6 µM
HCT-116 colon
  GI50: 0.0394 µM and 0.0818 µM
  TGI: 15.3 µM and 13.4 µM
NCI-H522 lung
  GI50: 0.0454 µM and 0.291 µM
  TGI: 3.2 µM and 18 µM
SNB-19 CNS
  GI50: 0.872 µM and 0.847 µM
  TGI: > 100 µM
A498 renal
  TGI: > 100 µM and 15.2 µM
UACC-257 melanoma
  GI50: 0.0954 µM and 0.484 µM
  TGI: 4.46 µM and 15.2 µM
KM12 colon
  GI50: 0.0291 µM and 0.0772 µM
COLO 205 colon
  GI50: 0.0422 µM and 0.0444 µM
HOP-92 NSCLC
  GI50: 0.617 µM and 0.498 µM
  TGI: 35.3 µM and 11 µM
HCC-2998 colon
  GI50: 0.0455 µM and 0.213 µM
M14 melanoma
  GI50: 0.0659 µM and 0.334 µM
  TGI: 15.6 µM and 14.6 µM
T-47D breast
  GI50: 0.0631 µM and 0.342 µM
  TGI: 31.2 µM and 34.8 µM
SF-539 CNS
  GI50: 1.5 µM and 1 µM
  TGI: 24.3 µM and 18 µM
LOX IMVI melanoma
  GI50: 0.055 µM and 0.177 µM
  TGI: 0.369 µM and 2.52 µM
NCI-H226 lung
  GI50: 0.414 µM and 0.553 µM
  TGI: > 60.3 µM and 50.6 µM
UACC-62 melanoma
  GI50: 0.0697 µM and 0.286 µM
  TGI: 15.4 µM and 3.91 µM
MOLT-4 leukemia
  GI50: 0.0473 µM and 0.177 µM
  TGI: > 66.4 µM and 20.7 µM
OVCAR-4 ovarian
  GI50: 5.79 µM and 6.39 µM
  TGI: > 100 µM
NCI-H23 lung
  GI50: 0.0606 µM and 0.458 µM
  TGI: 97.4 µM and > 53.9 µM
RPMI-8226 leukemia
  TGI: > 100 µM and 30.2 µM
OVCAR-3 ovarian
  GI50: 0.0793 µM and 0.452 µM
  TGI: 23.4 µM and 20.9 µM
MALME-3M melanoma
  GI50: 0.0403 µM and 0.271 µM
